Measurements published in PubChem BioAssay (NCI).
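Results reflect a 48-hour exposure of cells in 96-well plates to compound at five concentrations. At the GI50, growth is halved. Definition used: TGI = concentration required for complete inhibition of growth.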

Tests used:
Assay in all cases: DTP human tumour cell line panel, 48 h
786-0 renal = tested on: 786-0 renal
BT-549 breast = tested on: BT-549 breast
CAKI-1 renal = tested on: CAKI-1 renal
COLO 205 colon = tested on: COLO 205 colon
HS 578T breast = tested on: HS 578T breast
LOX IMVI melanoma = tested on: LOX IMVI melanoma
SF-295 CNS = tested on: SF-295 CNS
SF-539 CNS = tested on: SF-539 CNS
SK-OV-3 ovarian = tested on: SK-OV-3 ovarian
SNB-75 CNS = tested on: SNB-75 CNS

Structure (SMILES)	GI50 (786-0 renal) [µM]	TGI (786-0 renal) [µM]	GI50 (BT-549 breast) [µM]	TGI (BT-549 breast) [µM]	GI50 (CAKI-1 renal) [µM]	TGI (CAKI-1 renal) [µM]	GI50 (COLO 205 colon) [µM]	TGI (COLO 205 colon) [µM]	GI50 (HS 578T breast) [µM]	TGI (HS 578T breast) [µM]	GI50 (LOX IMVI melanoma) [nM]	TGI (LOX IMVI melanoma) [µM]	GI50 (SF-295 CNS) [µM]	TGI (SF-295 CNS) [µM]	GI50 (SF-539 CNS) [µM]	TGI (SF-539 CNS) [µM]	GI50 (SK-OV-3 ovarian) [µM]	TGI (SK-OV-3 ovarian) [µM]	GI50 (SNB-75 CNS) [µM]	TGI (SNB-75 CNS) [µM]
COc1ccc(Nc2nc3ccccc3c3occc23)cc1	5.02	10.8	6.08	13.5	> 50	> 50	7.71	18.6	7.12	16.3	649	5.32	6.64	13.2	8.89	18.9	0.005	9.95		
CCn1c(-c2cc3c([nH]c4ccccc43)c(-c3cccc(O)c3)n2)n[nH]c1=S	2.29	6.31	3.51	25.9			7.65	24.3	2.21	9.17	2930	12.7	3.24	22.8	2.42	9.27	4.32	17.5	1.26	4.85
O=c1cccccc1NCCCCCCCNc1cccccc1=O		> 100				> 100		> 100				> 100		> 100		> 100		> 100		> 100
COc1ccc2c(c1OC)-c1c(c3ccc([N+](=O)[O-])cc3c(=O)n1CCCBr)C2=O	21.6	52.1	50.8	> 100	7.31	> 100	> 100	> 100	70.6	> 100	12700	45.5	28.6	> 100			> 100	> 100	26.8	60.6
COC(=O)CCC12CCC(=O)C1[C@@H](C(=O)OC)C[C@H]2C(=O)OC (stereo partly drawn)		> 100				> 100		> 100				> 100		> 100		> 100		> 100		> 100
O=[N+]([O-])c1cccc(-c2nc(-c3ccccc3)c(-c3ccccc3)[nH]2)c1		> 100				> 100		> 100		> 100		> 100		> 100		> 100		> 100		
CCOC(=O)CCC1(C(=O)OCC)CCCC1=O (stereo not drawn)		> 100				> 100		> 100				> 100		> 100		> 100		> 100		> 100
N#C/C(=C\c1cccc(O)c1O)C(N)=O		> 100				> 100		77.7						> 100		> 100		93.7		47.2
CN(C)/C=N\c1ccnc(=O)[nH]1		> 100				> 100		> 100				> 100		> 100		> 100		> 100		> 100
CC1(c2cc3c(cc2Br)OCO3)SCCCS1		> 100						> 100				> 100		> 100		> 100		> 100		> 100
COc1ccc(OC(C(=O)O)C(C)C)c2c1CCCC2=O (stereo not drawn)		> 100				> 100		> 100				> 100		> 100		> 100		> 100		
Cc1c2c(cc3c1C(=O)C(=O)C1=C3OC[C@@H]1C)C(C)(C)CCC2		75.9				> 100		20.4				20.5		27.8		29.8		82.8		41.9
CCN1CCN(c2cc(C)nc(N(CCCNc3ccnc4cc(Cl)ccc34)Cc3ccc4c(c3)OCO4)n2)CC1	1.81	3.8	2.72	8.5			1.72	3.39	1.93	5.26	1890	3.7	1.91	3.82	1.73	3.21	14.8	34.8	1.59	3.57
CCCn1cnc2c(SCC(=O)O)nc(N)nc21		> 100		> 100		> 100		> 100		> 100		> 100		> 100				> 100		> 100
C#CCNC(=O)ON1C(=O)CCC1=O		> 100						> 100				> 100		> 100		> 100		> 100		> 100
Cc1cc(C)nc(/C(=N\NC(N)=O)C(=O)Nc2nc3ccc(C)cc3s2)c1		> 100				> 100		> 73.5				> 70.5		> 100		> 100		> 100		> 100
COc1ccc(-c2cc(C(=O)Nc3cc(C(F)(F)F)cc(C(F)(F)F)c3)c3ccccc3n2)cc1		28.1				25.5		28.4				29.1		32.5		28.4				29.6
O=c1nc(-c2ccccc2)cc(CC(O)c2ccc(Cl)c(Cl)c2)[nH]1 (stereo not drawn)		> 100				> 100		31.7				> 100		> 100		> 100		> 100		> 100
Cl/C(N=Nc1ccccc1)=N/Nc1ccccc1		> 100				> 100		> 100				> 100		> 100		> 100		> 100		
[O-]c1ccccc1C=Nc1ccc2c(c1)CCC2.[O-]c1ccccc1C=Nc1ccc2c(c1)CCC2.[O]=[U+2]=[O]	40.3	> 100			> 100	> 100	55.2	> 100			9920	> 100	> 100	> 100	14.2	> 100	> 100	> 100	82.7	> 100
Cc1cccc2c1c1ccc3c(c1n2C)C(=O)C=CC3=O		3.64				10.4		6.26				6.58		30.9		15		37.3		42.8
CNc1ccc2ncccc2c1[N+](=O)[O-]		> 100				> 100						> 100		> 100		> 100				> 100
COC(=O)C1C(=O)CC2CCCCC21 (stereo not drawn)		> 100				> 100		> 100								> 100		> 100		> 100
